Some test systems named below: 786-0 renal; CAKI-1 renal; HCC-2998 colon; HL-60(TB) leukemia; HS 578T breast; K-562 leukemia; KM12 colon; MDA-MB-231 breast; MOLT-4 leukemia; NCI-H460 lung; NCI/ADR-RES ovarian; OVCAR-8 ovarian; PC-3 prostate; SF-268 CNS; SF-295 CNS; SN12C renal; SNB-75 CNS; MCF7 breast; NCI-H226 lung.
Assay in all cases: NCI anticancer screen, dose series, 48 h

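Step 1: Grow cells in 96-well plates. Step 2: Expose to compound for 48 hours at 5 concentrations. Step 3: Interpolate endpoints linearly; if unreached, use highest concentration. The concentration for full growth arrest is given as TGI.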

The text below walks through data of PubChem BioAssay (NCI).

As for `Nc1ccc(-c2nc3ccccc3s2)cc1CO`, the TGI in the experiment with 786-0 renal, in the experiment with CAKI-1 renal, with HCC-2998 colon, in the experiment on HL-60(TB) leukemia, with HS 578T breast and in the experiment on K-562 leukemia was over 100 µM in each case. Further, the TGI in the experiment with KM12 colon, in the experiment with MDA-MB-231 breast, in the experiment on MOLT-4 leukemia, in the experiment on NCI-H460 lung, with NCI/ADR-RES ovarian and in the experiment on OVCAR-8 ovarian was over 100 µM throughout. Also, the TGI with PC-3 prostate, with SF-268 CNS, in the experiment on SF-295 CNS, in the experiment with SN12C renal and in the experiment on SNB-75 CNS was over 100 µM in each case.

Turning to `c1ccc2c(c1)nc1ccccn12`, the TGI with 786-0 renal, in the experiment with HCC-2998 colon, in the experiment on HL-60(TB) leukemia, with HS 578T breast, with K-562 leukemia and in the experiment on KM12 colon was over 100 µM throughout. In addition, the TGI in the experiment with MCF7 breast, in the experiment on MOLT-4 leukemia, in the experiment with NCI-H226 lung, in the experiment with NCI-H460 lung, in the experiment with NCI/ADR-RES ovarian and with OVCAR-8 ovarian was over 100 µM throughout. Also, the TGI with PC-3 prostate, with SF-268 CNS, in the experiment on SF-295 CNS, in the experiment on SN12C renal and in the experiment on SNB-75 CNS was over 100 µM throughout.

For the molecule `O=C1CCC(=O)c2ccccc2N1`, the TGI in the experiment on 786-0 renal, in the experiment with CAKI-1 renal, with HCC-2998 colon, in the experiment on HL-60(TB) leukemia, with K-562 leukemia and with KM12 colon was over 100 µM throughout. Moreover, the TGI in the experiment on MOLT-4 leukemia, in the experiment with NCI-H226 lung, in the experiment on NCI-H460 lung, with OVCAR-8 ovarian, in the experiment with SF-268 CNS and in the experiment on SF-295 CNS was over 100 µM throughout. Moreover, the TGI in the experiment on SN12C renal and with SNB-75 CNS was over 100 µM throughout.

As to `CN(C)CC1(Cc2ccccc2)CC/C(=C\c2ccccc2)C1=O` (centres undefined), the TGI in the experiment on 786-0 renal was over 100 µM; in the experiment on CAKI-1 renal it was over 100 µM; with HCC-2998 colon it was 40.7 µM; in the experiment on HL-60(TB) leukemia it was 48.7 µM; with K-562 leukemia, over 100 µM; with KM12 colon, over 100 µM. The TGI was 67.5 µM with MOLT-4 leukemia; over 100 µM in the experiment on NCI-H226 lung; 68.3 µM in the experiment on NCI-H460 lung; over 100 µM in the experiment on OVCAR-8 ovarian; over 100 µM in the experiment with SF-268 CNS; over 100 µM in the experiment on SF-295 CNS. Besides, the TGI with SN12C renal and in the experiment on SNB-75 CNS was over 100 µM each time.

For the molecule `COc1ccc2nc3c4c(nccc4c2c1)-c1ncccc1C3=O`, the TGI amounted to 0.208 µM in the experiment with 786-0 renal; 1.83 µM in the experiment with CAKI-1 renal; 0.805 µM with HCC-2998 colon; 0.165 µM in the experiment with HL-60(TB) leukemia; 0.174 µM in the experiment with K-562 leukemia; 0.706 µM in the experiment with KM12 colon. Further, the TGI with MCF7 breast came to 0.179 µM; with MDA-MB-231 breast it was 3.94 µM; with MOLT-4 leukemia it was 5.31 µM; in the experiment with NCI-H226 lung, 0.445 µM; in the experiment on NCI-H460 lung, 0.119 µM; in the experiment with NCI/ADR-RES ovarian, 7.62 µM. Further, the TGI turned out to be 6.55 µM in the experiment with OVCAR-8 ovarian; 3.14 µM in the experiment on PC-3 prostate; 3.96 µM in the experiment with SF-268 CNS; 0.278 µM in the experiment with SF-295 CNS; 0.298 µM in the experiment with SN12C renal; 0.378 µM in the experiment with SNB-75 CNS.

Consider `CC(C)CCNC(=O)c1ccc(CNC(=O)/C=C/c2ccc3ccccc3c2)cc1`, for which the TGI in the experiment with 786-0 renal, in the experiment on CAKI-1 renal, in the experiment on HCC-2998 colon, in the experiment on HL-60(TB) leukemia, in the experiment on K-562 leukemia and in the experiment with KM12 colon was over 100 µM in each case. Further, the TGI in the experiment with MCF7 breast, in the experiment with MDA-MB-231 breast, in the experiment with MOLT-4 leukemia, in the experiment on NCI-H226 lung, with NCI-H460 lung and in the experiment on NCI/ADR-RES ovarian was over 100 µM in each case. Further, the TGI in the experiment with OVCAR-8 ovarian, in the experiment with PC-3 prostate, in the experiment on SF-268 CNS, in the experiment on SF-295 CNS, with SN12C renal and with SNB-75 CNS was over 100 µM in each case.

Regarding `COc1ccc2c(O)c1-c1c(OC)ccc(c1O)SSc1ccc(OC)c(c1O)-c1c(OC)ccc(c1O)SS2`, the TGI was over 100 µM with 786-0 renal; over 100 µM with CAKI-1 renal; over 100 µM in the experiment on HL-60(TB) leukemia; over 100 µM in the experiment with HS 578T breast; 97.1 µM with K-562 leukemia; over 100 µM in the experiment on KM12 colon. The TGI was over 100 µM with MCF7 breast; over 100 µM in the experiment on MDA-MB-231 breast; over 100 µM in the experiment on MOLT-4 leukemia; over 100 µM in the experiment with NCI-H226 lung; over 100 µM in the experiment on OVCAR-8 ovarian; 26.4 µM in the experiment on PC-3 prostate. For the same molecule, the TGI in the experiment with SF-268 CNS, in the experiment with SF-295 CNS, in the experiment with SN12C renal and in the experiment on SNB-75 CNS was over 100 µM in each case.

Take `C/C=C1\Oc2ccc(OC)cc2S1(=O)=O`: the TGI in the experiment on 786-0 renal, in the experiment on CAKI-1 renal, with HCC-2998 colon, with HL-60(TB) leukemia, with K-562 leukemia and with KM12 colon was over 100 µM in each case. Further, the TGI in the experiment on MOLT-4 leukemia, with NCI-H226 lung, with NCI-H460 lung, in the experiment with OVCAR-8 ovarian, in the experiment on SF-268 CNS and in the experiment on SF-295 CNS was over 100 µM throughout. The TGI in the experiment with SN12C renal and with SNB-75 CNS was over 100 µM throughout.

As to `Cn1c2ncccc2n2c(=O)cc(O)cc12`, the TGI in the experiment with 786-0 renal, with CAKI-1 renal, in the experiment on HCC-2998 colon, in the experiment with K-562 leukemia, in the experiment on KM12 colon and with MCF7 breast was over 100 µM throughout. In addition, the TGI with MDA-MB-231 breast is over 100 µM; in the experiment on MOLT-4 leukemia, 60.1 µM; in the experiment with NCI-H226 lung, over 100 µM; in the experiment with NCI-H460 lung it was over 100 µM; in the experiment on NCI/ADR-RES ovarian, over 100 µM; with OVCAR-8 ovarian, over 100 µM. The TGI with PC-3 prostate, with SF-268 CNS, in the experiment on SF-295 CNS and with SNB-75 CNS was over 100 µM each time.
